Results on two compounds are retold here after article PMC8867174, “S-Nitrosation of Arabidopsis thaliana Protein Tyrosine Phosphatase 1 Prevents Its Irreversible Oxidation by Hydrogen Peroxide” (Frontiers in Plant Science, 2022).

The target of assay [1] is T1, His-AtPTP1 (Arabidopsis thaliana Protein Tyrosine Phosphatase 1) (Arabidopsis thaliana, UniProt O82656).
T1 construct: gene PTP1
T1 sequence (O82656 1-340): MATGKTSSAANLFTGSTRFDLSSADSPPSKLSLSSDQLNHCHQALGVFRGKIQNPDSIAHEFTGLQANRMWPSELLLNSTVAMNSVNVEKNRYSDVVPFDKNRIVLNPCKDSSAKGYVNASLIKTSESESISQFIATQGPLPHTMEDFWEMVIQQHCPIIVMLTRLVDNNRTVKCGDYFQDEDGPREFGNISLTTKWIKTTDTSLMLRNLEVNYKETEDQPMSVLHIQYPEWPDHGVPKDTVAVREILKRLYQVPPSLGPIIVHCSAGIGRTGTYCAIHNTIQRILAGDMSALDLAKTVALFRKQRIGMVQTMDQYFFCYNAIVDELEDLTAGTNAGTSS
Description: pNPP hydrolysis after overnight pre-treatment, […] nm. Conditions: covalent (NO donor, S-nitrosation); 250 uM to 1 mM SNAP overnight 25 C, removed by gel filtration; assay 1 mM pNPP, pH 6.3, 25 C. Type of assay: biochemical.

For assay [2], the target named is T1, His-AtPTP1 (Arabidopsis thaliana Protein Tyrosine Phosphatase 1). Description: pNPP hydrolysis after overnight pre-treatment, […] nm; biotin switch LC-MS/MS. Conditions: covalent (S-nitrosation of catalytic C265, reversible by DTT); 100 or 500 uM GSNO overnight 25 C, removed by gel filtration; assay 1 mM pNPP, pH 6.3, 25 C, no DTT. Format: biochemical. For orientation: In gel filtration, larger molecules generally elute earlier.

In the case of `CC(=O)NC(C(=O)O)C(C)(C)SN=O` (centres unmarked) [S-nitroso-N-acetylpenicillamine], the relative activity entry in assay [1] was “Treatment of His-AtPTP1 with SNAP also led to a significant decrease in its activity”. Regarding `N[C@@H](CCC(=O)N[C@@H](CSN=O)C(=O)NCC(=O)O)C(=O)O` [S-nitrosoglutathione], the relative activity entry in assay [2] was “GSNO inhibited the enzymatic activity of His-AtPTP1”.
